Data as given in patent CN108947977A, “3r-吲哚甲基-6r-酰胺侧链氨基酸修饰的哌嗪-2,5-二酮，其合成，活性和应用” (Capital Medical University, priority 2017, dated 2018).

Tests used:
[1] = test system: S180; experiment: Anti-tumour growth activity in S180 tumour-bearing mice (tumour weight); format: in vivo, ICR小鼠; settings: oral, 0.5μmol/kg/天; for Inhibition of tumour growth (result in words): 12 days, S180 mice; for Anti-tumour growth activity compared with compound 8 (5μmol/kg/天): compound 8 dose 10-fold higher
[2] = test system: Lewis小鼠肺癌细胞(LLC); experiment: Anti-metastasis activity: Lewis lung carcinoma (LLC) implanted in C57BL/6 mice, lung metastasis nodules counted; format: in vivo, C57BL/6小鼠; settings: oral, 0.5μmol/kg/天; for Inhibition of tumour lung metastasis (result in words): 12 days, LLC-bearing C57BL/6 mice; for Anti-metastasis activity compared with RGDS (20μmol/kg/天) and compound 8 (5μmol/kg/天): RGDS dose 40-fold higher, compound 8 dose 10-fold higher
[3] = test system: 二甲苯引起的小鼠耳肿胀; experiment: Anti-inflammatory activity: xylene-induced mouse ear swelling; format: in vivo, ICR小鼠; settings: oral, 0.5μmol/kg; for Inhibition of xylene-induced mouse ear swelling (result in words): xylene 30 min after dosing, ears taken 2 h later; for Anti-inflammatory activity compared with compound 8 (5μmol/kg): compound 8 dose 10-fold higher

Compound | Inhibition of tumour growth (result in words) [1] | Anti-tumour growth activity compared with compound 8 (5μmol/kg/天) [1] | Inhibition of tumour lung metastasis (result in words) [2] | Anti-metastasis activity compared with RGDS (20μmol/kg/天) and compound 8 (5μmol/kg/天) [2] | Inhibition of xylene-induced mouse ear swelling (result in words) [3] | Anti-inflammatory activity compared with compound 8 (5μmol/kg) [3]
NC(=O)CC[C@H](N)C(=O)NCCCCCC(=O)NCCCC[C@H]1NC(=O)[C@@H](Cc2c[nH]c3ccccc23)NC1=O [化合物6a, (3R,6R)-3-(Gln-氨基正己酰基氨基正丁基)-6-(吲哚-3-甲基)-哌嗪-2,5-二酮] | 有效地抑制肿瘤生长 | 没有显著性差异 | 有效地抑制肿瘤肺转移 | 没有显著性差异 | 有效地抑制二甲苯引起的小鼠耳肿胀 | 没有显著性差异
NC(=O)C[C@H](N)C(=O)NCCCCCC(=O)NCCCC[C@H]1NC(=O)[C@@H](Cc2c[nH]c3ccccc23)NC1=O [化合物6b, (3R,6R)-3-(Asn-氨基正己酰基氨基正丁基)-6-(吲哚-3-甲基)-哌嗪-2,5-二酮] | 有效地抑制肿瘤生长 | 没有显著性差异 | 有效地抑制肿瘤肺转移 | 没有显著性差异 | 有效地抑制二甲苯引起的小鼠耳肿胀 | 没有显著性差异
